Measurements: the NIST ThermoML archive (doi:10.1021/je400408w)

Assays:
[1] = molar heat capacity at constant pressure; settings: 100 kPa, Liquid
[2] = 101.33 kPa, Liquid; for speed of sound: Pulse-echo method; for mass density: Vibrating tube method
[3] = molar heat capacity at constant pressure; xn = mol fraction of the nth substance listed; settings: 100 kPa, Liquid

Cc1ccccc1Cl [2-chlorotoluene]
Settings	mass density, 293.15 K [kg/m3]	mass density, 298.15 K [kg/m3]	mass density, 303.15 K [kg/m3]	molar heat capacity at constant pressure, 293.15 K [J/K/mol]	molar heat capacity at constant pressure, 298.15 K [J/K/mol]	molar heat capacity at constant pressure, 303.15 K [J/K/mol]	speed of sound, 293.15 K [m/s]	speed of sound, 298.15 K [m/s]	speed of sound, 303.15 K [m/s]
[1]	–	–	–	176.43	178.21	180.01	–	–	–
[2]	1082.22	1077.34	1072.46	–	–	–	1316.8	1298.7	1280.7

O=C1CCCN1 [2-pyrrolidinone]
Settings	mass density, 293.15 K [kg/m3]	mass density, 298.15 K [kg/m3]	mass density, 303.15 K [kg/m3]	molar heat capacity at constant pressure, 293.15 K [J/K/mol]	molar heat capacity at constant pressure, 298.15 K [J/K/mol]	molar heat capacity at constant pressure, 303.15 K [J/K/mol]	speed of sound, 293.15 K [m/s]	speed of sound, 298.15 K [m/s]	speed of sound, 303.15 K [m/s]
[1]	–	–	–	168.36	169.55	171.18	–	–	–
[2]	1111.28	1107.15	1103.06	–	–	–	1651.4	1635	1618.7

Cc1cccc(Cl)c1 [3-chlorotoluene]
Settings	mass density, 293.15 K [kg/m3]	mass density, 298.15 K [kg/m3]	mass density, 303.15 K [kg/m3]	molar heat capacity at constant pressure, 293.15 K [J/K/mol]	molar heat capacity at constant pressure, 298.15 K [J/K/mol]	molar heat capacity at constant pressure, 303.15 K [J/K/mol]	speed of sound, 293.15 K [m/s]	speed of sound, 298.15 K [m/s]	speed of sound, 303.15 K [m/s]
[1]	–	–	–	175.21	176.46	177.67	–	–	–
[2]	1072.12	1067.23	1062.33	–	–	–	1313.6	1295.5	1277.3

Cc1ccc(Cl)cc1 [4-chlorotoluene]
Settings	mass density, 293.15 K [kg/m3]	mass density, 298.15 K [kg/m3]	mass density, 303.15 K [kg/m3]	molar heat capacity at constant pressure, 293.15 K [J/K/mol]	molar heat capacity at constant pressure, 298.15 K [J/K/mol]	molar heat capacity at constant pressure, 303.15 K [J/K/mol]	speed of sound, 293.15 K [m/s]	speed of sound, 298.15 K [m/s]	speed of sound, 303.15 K [m/s]
[1]	–	–	–	175.66	177.95	180.37	–	–	–
[2]	1069.27	1064.37	1059.46	–	–	–	1306.5	1288.4	1270.3

Cc1ccc(Cl)cc1 [4-chlorotoluene] + O=C1CCCN1
molar heat capacity at constant pressure [J/K/mol], [3]
Settings	293.15 K	298.15 K	303.15 K
x2 = 0	175.66	177.95	180.37
x2 = 0.0386	175.99	178.08	180.47
x2 = 0.0724	176.3	178.23	180.58
x2 = 0.1123	176.65	178.52	180.66
x2 = 0.1526	177.03	178.78	180.84
x2 = 0.1926	177.35	179.04	180.93
x2 = 0.2317	177.67	179.22	181.06
x2 = 0.2725	177.98	179.48	181.12
x2 = 0.3126	178.18	179.64	181.1
x2 = 0.3516	178.38	179.7	181.14
x2 = 0.3916	178.43	179.77	181.06
x2 = 0.4332	178.43	179.72	180.88
x2 = 0.4753	178.35	179.67	180.61
x2 = 0.5121	178.24	179.47	180.38
x2 = 0.5512	177.97	179.17	180.03
x2 = 0.5925	177.61	178.79	179.53
x2 = 0.6325	177.15	178.25	179.05
x2 = 0.6715	176.58	177.74	178.48
x2 = 0.7122	175.92	176.99	177.81
x2 = 0.7534	175.18	176.18	177
x2 = 0.7921	174.31	175.32	176.22
x2 = 0.8324	173.32	174.4	175.34
x2 = 0.8731	172.28	173.34	174.46
x2 = 0.9123	171.14	172.21	173.5
x2 = 0.9543	169.86	171	172.43

CN1CCCC1=O [N-methylpyrrolidone]
Settings	mass density, 293.15 K [kg/m3]	mass density, 298.15 K [kg/m3]	mass density, 303.15 K [kg/m3]	molar heat capacity at constant pressure, 293.15 K [J/K/mol]	molar heat capacity at constant pressure, 298.15 K [J/K/mol]	molar heat capacity at constant pressure, 303.15 K [J/K/mol]	speed of sound, 293.15 K [m/s]	speed of sound, 298.15 K [m/s]	speed of sound, 303.15 K [m/s]
[1]	–	–	–	165.44	166.22	166.92	–	–	–
[2]	1033.28	1028.26	1023.49	–	–	–	1565.6	1546.1	1527.3

CN1CCCC1=O [N-methylpyrrolidone] + Cc1ccc(Cl)cc1
[3], x1 = 1
Settings	molar heat capacity at constant pressure [J/K/mol]
293.15 K	165.44
298.15 K	166.22
303.15 K	166.92

CN1CCCC1=O [N-methylpyrrolidone] + Cc1cccc(Cl)c1
[3], x1 = 1
Settings	molar heat capacity at constant pressure [J/K/mol]
293.15 K	165.44
298.15 K	166.22
303.15 K	166.92

CN1CCCC1=O [N-methylpyrrolidone] + Cc1ccccc1Cl
[3], x1 = 1
Settings	molar heat capacity at constant pressure [J/K/mol]
293.15 K	165.44
298.15 K	166.22
303.15 K	166.92
